Reference: US20060128613A1, “Melanocortin receptor ligands” (The Procter & Gamble Company, priority 2003, published 2006)

Experiment: Composition and Method Examples A-E: treatment of obese human subjects to incur or maintain weight loss
Format: in vivo
Description: An obese human subject weighing 130 kg is treated by this method to incur weight loss. Specifically, once each day for a period of 6 months, the subject is administered, via intravenous injection, 15 ml of an aqueous solution comprising the following:
An obese human subject weighing 150 kg is subjected to a weight-reduction program that achieves weight loss with reduced adiposity through a combination of a restricted diet and increased exercise. Specifically, once each day for a period of 6 months after weight loss, the subject is administered, via intravenous injection, 15 ml of an aqueous solution comprising the following:
An obese human subject weighing 165 kg is subjected to a weight reduction program that achieves weight loss through a combination of restricted diet, increased exercise and subcutaneous injection daily of 15 mls of an aqueous solution comprising:
Once the desired weight loss has been achieved, the patient's weight loss is maintained through continuation of the intravenous injection once each day for an additional period of 6 months.
An obese human subject weighing 140 kg is treated by the present method to incur weight loss. Specifically, they are treated with an implantable subcutaneous pump that delivers 0.1 mg/kg of the compound of Example 31 over a 24 hour period. The pump contains a solution of the compound dissolved in a solution of 50% propylene glycol and 50% sterile water.
An obese person weighing 150 kg is treated by this method to incur weight loss. Specifically, they are treated with an oral tablet taken twice daily containing 300 mg of the compound in Example 29.

3-(4-OHPh)propanoyl-(4-F-f)RW—NH2 [Example 88]
maintained weight loss and adiposity at the end of the treatment period (Example C: obese human 165 kg, diet, exercise and daily subcutaneous injection of 15 ml, 5 mg/ml, then injection once each day for additional 6 months): maintained weight loss and reduced adiposity

Ac-(L-4-Chloro-Phe)(D-4-Fluoro-Phe)RW—NH2 [Example 29]
weight loss and adiposity after 12 months treatment (Example E: obese person 150 kg, oral tablet 300 mg twice daily, 12 months): weight loss and reduced adiposity

Ac-(L-4-Chloro-Phe)fRW(N-Me-Gly)-NH2 [Example 31]
weight loss and adiposity after six-month treatment (Example D: obese human 140 kg, implantable subcutaneous pump delivering 0.1 mg/kg over 24 hours, six months): weight loss and reduced adiposity

Ac—YfHW—NH2 [Example 9]
maintenance of weight loss and adiposity at the end of the treatment period (Example B: obese human 150 kg after diet and exercise weight loss, intravenous injection once each day for 6 months, 15 ml, 5 mg/ml): maintenance of weight loss and reduced adiposity

Ac—YfRW—NH2 [Example 1]
weight loss at the end of the treatment period (Example A: obese human 130 kg, intravenous injection once each day for 6 months, 15 ml aqueous solution, 5 mg/ml): measurable weight loss
